Laboratory results as given in publication PMC7588913, “A Peptide Found in Human Serum, Derived from the C-Terminus of Albumin, Shows Antifungal Activity In Vitro and In Vivo” (Microorganisms, 2020).
Read-outs that look alike come from different tables or passages of the source. Where a SMILES comes first, the peptide text is derived from it.

Columns and labels:
C. albicans SC5314 = assay: Colony forming unit (CFU) candidacidal assay; format: cell-based, Candida albicans; details: 100 μg/mL vs reference strain C. albicans SC5314, CFU assay
Procedure: The fungicidal activity of the selected peptides was evaluated in vitro by a previously described colony forming unit (CFU) assay. All peptides were preliminarily tested at the concentration of 100 μg/mL vs. the reference strain C. albicans SC5314. […] After incubation at 37 °C for 6 h in the presence or absence (control growth) of the peptides, fungal cell suspensions (approximately 500 cells/100 μL of distilled water) were spread on Sabouraud Dextrose agar plates. After incubation at 30 °C for 48–72 h, CFUs were enumerated. Each assay was carried out in triplicate and at least 2 independent experiments were performed for each condition. EC50 values were calculated by nonlinear regression analysis using Graph Pad Prism 4.01 software, San Diego, CA, USA. Time kinetics of K13L-mediated killing against the reference C. albicans strain was determined by CFU assays, as described above, after incubation of yeast cells for 30 min, 1, 2, 4 and 6 h with K13L at different concentrations.

LLC-MK2 cells = format: cell-based, Rhesus monkey
Procedure: (§1) The hemolytic and cytotoxic activity of the selected peptides (25, 50 and 100 μM) was evaluated as previously described. For the evaluation of hemolytic activity, peptides were added to human erythrocytes (blood group 0 Rh+, final concentration, 2.5% v/v) and hemoglobin release was estimated after 30 and 120 min incubation by measuring the absorbance of the supernatant at 540 nm. Erythrocytes suspended in phosphate buffered saline (PBS) and Triton 1% were the controls for zero (blank) and 100% hemolysis, respectively. Cytotoxicity against Rhesus monkey kidney epithelial cells (LLC-MK2 line) treated with peptides for 24 h was assessed after resazurin addition by measuring fluorescence intensity at 572 nm. Cells in medium without peptide served as control (100% viability). Each assay was carried out in duplicate and at least 2 independent replicates were performed for each experiment.
(§2) Data are reported as the mean ± SD. Statistical significance was assessed by t test, p < 0.05 was considered significant.

human erythrocytes = format: cell-based
Procedure: as §1, §2

Galleria mellonella = assay: In vivo toxicity in Galleria mellonella larvae; details: K13L 33.33 mg/kg into the haemocoel, 37 °C, monitored 9 days, Mantel–Cox log-rank test
Procedure: The potential therapeutic activity of K13L was evaluated by the G. mellonella model of experimental candidiasis, according to a previously described procedure. To preliminarily evaluate in vivo toxicity, a solution of K13L (33.33 mg/kg) was inoculated directly into the haemocoel, via the last left pro-leg, in larvae at their final instar stage (body weight, 300 ± 20 mg, 10 μL/larva). Larvae inoculated with 10 μL of saline solution and untouched larvae served as controls. All animals were incubated at 37 °C in the dark and monitored daily for survival for 9 days. For the evaluation of therapeutic activity, larvae (16/group) were challenged with C. albicans SC5314 (5 × 10^5 yeast cells/larva, 10 μL) via the last left pro-leg. A solution of K13L (16.66 mg/kg,) or saline (control) was injected 60 min later, via the last right proleg (10 μL). Larvae were monitored daily for 9 days after infection. The log rank (Mantel–Cox) test was used to compare survival curves by Graph Pad Prism software.

Structure (SMILES)	Fungicidal activity in preliminary assay (C. albicans SC5314)	Cell Viability (%) (LLC-MK2 cells; 25 µM)	Cell Viability (%) (LLC-MK2 cells; 50 µM)	Cell Viability (%) (LLC-MK2 cells; 100 µM)	Hemolysis (%) (human erythrocytes; 25 µM)	Hemolysis (%) (human erythrocytes; 50 µM)	Survival of larvae vs saline-inoculated larvae (in vivo toxicity) (Galleria mellonella)
CC(C)C[C@H](NC(=O)[C@H](Cc1ccccc1)NC(=O)[C@H](CC(=O)O)NC(=O)CNC(=O)[C@H](CCC(=O)O)NC(=O)CNC(=O)[C@H](CO)NC(=O)[C@@H](N)CC(=O)O)C(=O)N[C@@H](C)C(=O)N[C@@H](CCC(=O)O)C(=O)NCC(=O)NCC(=O)NCC(=O)N[C@H](C(=O)N[C@@H](CCCNC(=N)N)C(=O)O)C(C)C [Peptide D15R] (H-DSGEGDFLAEGGGVR-OH; N-terminus and C-terminus assumed)	no activity	101.32 ± 1.92	101.25 ± 0.19	103.00 ± 1.49	–	–	–
C[C@H](NC(=O)[C@H](CCC(=O)O)NC(=O)[C@H](CO)NC(=O)CNC(=O)[C@H](C)NC(=O)[C@H](CCC(=O)O)NC(=O)[C@@H](N)CC(=O)O)C(=O)N[C@@H](CC(=O)O)C(=O)N[C@@H](Cc1c[nH]cn1)C(=O)N[C@@H](CCC(=O)O)C(=O)NCC(=O)N[C@H](C(=O)N[C@@H](Cc1c[nH]cn1)C(=O)N[C@@H](CO)C(=O)N[C@H](C(=O)O)[C@@H](C)O)[C@@H](C)O [Peptide D15T] (H-DEAGSEADHEGTHST-OH; N-terminus and C-terminus assumed)	no activity	108.50 ± 0.92	107.55 ± 1.48	108.50 ± 5.15	0.00	0.00	–
CC(C)[C@H](NC(=O)[C@@H](NC(=O)[C@H](Cc1ccccc1)NC(=O)CNC(=O)[C@H](CCC(=O)O)NC(=O)[C@H](CC(N)=O)NC(=O)[C@H](CCC(=O)O)NC(=O)[C@H](CCCCN)NC(=O)[C@@H](NC(=O)[C@H](CCC(=O)O)NC(=O)[C@H](CCC(=O)O)NC(=O)[C@@H](N)CO)[C@@H](C)O)[C@@H](C)O)C(=O)N[C@H](C(=O)N[C@@H](C)C(=O)N[C@@H](CCC(=O)O)C(=O)NCC(=O)N[C@@H](CCCCN)C(=O)O)[C@@H](C)O [Peptide S17K] (H-SEETKENEGFTVTAEGK-OH; N-terminus and C-terminus assumed)	no activity	103.47 ± 2.00	102.69 ± 1.37	101.73 ± 1.82	0.00	–	–
CC(C)C[C@H](NC(=O)CNC(=O)[C@H](CC(C)C)NC(=O)[C@H](C)NC(=O)[C@H](C)NC(=O)[C@H](CCC(N)=O)NC(=O)[C@H](CO)NC(=O)[C@H](C)NC(=O)[C@H](C)NC(=O)[C@@H](NC(=O)[C@H](CC(C)C)NC(=O)[C@H](CCCCN)NC(=O)[C@@H](N)CCCCN)C(C)C)C(=O)O [Peptide K13L] (H-KKLVAASQAALGL-OH)	–	105.95 ± 1.47	105.04 ± 0.20	101.26 ± 0.38	–	–	No significant difference in survival
CC[C@H](C)[C@H](NC(=O)[C@H](CCCCN)NC(=O)[C@H](CO)NC(=O)CNC(=O)[C@H](CC(C)C)NC(=O)[C@H](CO)NC(=O)[C@H](Cc1ccccc1)NC(=O)[C@H](CCC(N)=O)NC(=O)[C@H](CC(C)C)NC(=O)[C@H](CCC(=O)O)NC(=O)[C@H](CCC(=O)O)NC(=O)[C@H](CCC(=O)O)NC(=O)[C@H](CC(C)C)NC(=O)CN)C(=O)N[C@@H](CC(N)=O)C(=O)N[C@H](C(=O)N[C@@H](CCCCN)C(=O)O)C(C)C [Peptide G17K] (H-GLEEELQFSLGSKINVK-OH)	–	99.07 ± 1.57	99.73 ± 0.45	99.07 ± 1.57	0.00	–	–
